Laboratory results published in PubChem BioAssay (NCI).
Where “and” joins values, the source holds several entries; their conditions need not be identical. Equal values may be shown once.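 Step 1: Grow cells in 96-well plates. Step 2: Expose to compound for 48 hours at 5 concentrations. Step 3: Interpolate endpoints linearly; if unreached, use highest concentration. GI50 = concentration required for 50% inhibition of growth. TGI marks complete inhibition of growth.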

Tested on: CCRF-CEM leukemia
Test: inhibition of tumour cell growth, NCI panel, 48 h

| SMILES | TGI [µM] | GI50 [µM] |
| --- | --- | --- |
| NC(CCC(=O)NC(CSSCCCCS(=O)O)C(=O)NCC(=O)O)C(=O)O (configuration not stated) | > 100 |  |
| COC12C=C(C)C(CC1)CC2C(=O)O (configuration not stated) | > 100 |  |
| COc1ccc(-c2cnnc3c(-c4cccc(C(F)(F)F)c4)cnn23)cc1 | > 100 | > 100 |
| OCC(O)CC[CH2][Sn]([Br])([c]1ccccc1)[c]1ccccc1 (configuration not stated) | > 100 | > 100 |
| CCc1ccc(/C=C\c2cc(OC)c(OC)c(OC)c2)cc1 |  | 0.0274 |
| O=c1c2cc([N+](=O)[O-])ccc2sc2ccsc12 | > 100 |  |
| COc1ccc(C2=CC3CCC2C3)cc1 (configuration not stated) | > 100 |  |
| CC/C(=C(/c1ccc(O)cc1)c1ccc(OCCNC)cc1)c1ccccc1 | 6.88 | 2.39 |
| [Cl-].[Dy+3].[O-]/N=C(\c1ccccc1)c1ccccn1.[O-]/N=C(\c1ccccc1)c1ccccn1.[O-]/N=C(\c1ccccc1)c1ccccn1 | 97.4 | 23.6 |
| CC(C)(CC(=O)Nc1ccccc1)C(=O)O | > 100 |  |
| COc1ccc(/C(COc2c(-c3ccccc3)oc3ccccc3c2=O)=N\O)cc1 | > 50 | 37 |
| NC(=O)C(=O)N/N=C(\CC1(O)C(=O)Nc2ccccc21)c1ccc2ccccc2c1 (configuration not stated) | 48.5 |  |
| Cc1cc2c(cc1C)[n+](=O)c(C(=O)C/C(=N/NC(=O)CC#N)C(=O)Nc1ccccc1C(F)(F)F)c(C)n2[O-] | > 100 |  |
| COC(=O)/C(=N/NC(=O)C[N+](C)(C)C)C(C(=O)OC)C(=O)C(=O)Nc1ccc(F)cc1 (configuration not stated) | > 100 |  |
| O=C(c1ccccc1)c1nnc(C(=O)c2ccccc2)nn1 | > 344 |  |
| Brc1cccc(C=NC23CC4CC(CC(C4)C2)C3)c1 | > 100 |  |
| COc1cc(C2=C(c3ccccc3)COC2=O)cc(OC)c1OC | > 100 | 1.38 |

| SMILES | TGI [µM] | GI50 [µM] |
| --- | --- | --- |
| COc1cc(C2NC(=O)c3ccccc3N2)ccc1OCCCCCOc1c(OC)cc(C2=NOC(c3cc(OC)c(OC)c(OC)c3)C2)cc1OC (configuration not stated) | > 77.6 | 0.627 |
| O=C1O[C@@H](c2ccc3c(c2)OCO3)C2C(=O)O[C@@H](c3ccc4c(c3)OCO4)C12 (some centres not stated) | > 100 |  |
| O=C1CCC(=O)N2CCCCN12 | > 100 |  |
| CC(C)C(=O)NC(=S)Nc1ccc([N+](=O)[O-])cc1C#N | > 100 |  |
| C/C(CC(=O)Nc1cc(Cl)c(Cl)cc1Cl)=N\NC(N)=O | > 100 |  |
| N#Cc1cc([N+](=O)[O-])ccc1NC(=O)C(=O)Nc1n[nH]c(N)n1 | > 100 |  |
| O=C(/C=C/c1c(O)ccc2ccccc12)c1cccc(O)c1 | > 100 |  |
| CC1=NN(C(=O)Nc2ccccc2)C(=O)C2CCC(=O)N12 (configuration not stated) | > 100 |  |
| COC(=O)C1Cc2c(n(Cc3ccccc3)c3ccccc23)C(CCC(=O)O)N1C(C)C (configuration not stated) | > 100 |  |
| O=C(O)CNS(=O)(=O)c1ccc(NCc2ccccc2)cc1 | > 100 |  |
| CC(C)(C)C1C=C(Sc2ccccc2)C(=O)O1 (configuration not stated) | > 100 |  |
| CCC[CH2][Sn]1([CH2]CCC)[O]Cc2nc(C)ccc2[O]1 | 5.01 | 1.87 |
| Cc1ccc2c(c1)[n+]([O-])c(N)n[n+]2[O-] | > 100 |  |
| O=c1/c(=C/c2ccco2)sc2nc3ccccc3n12 | > 100 | > 100 |
| O=C1CCC2(c3ccc(F)cc3)Nc3cc(Cl)ccc3N12 (configuration not stated) | > 100 |  |
| C/C(CC(=O)Nc1ccc(C)cc1C)=N/N=C(N)N | > 100 |  |

Tested on: COLO 205 colon
Test: inhibition of tumour cell growth, NCI panel, 48 h

| SMILES | TGI | GI50 [µM] |
| --- | --- | --- |
| COC(=O)c1c/c(=N\NC(=O)CC(=O)Nc2ccccc2OC)c2ccccc2o1 | > 100 µM |  |
| NC(CCC(=O)NC(CSSCCCCS(=O)O)C(=O)NCC(=O)O)C(=O)O (configuration not stated) | > 100 µM |  |
| COC12C=C(C)C(CC1)CC2C(=O)O (configuration not stated) | > 100 µM |  |
| COc1ccc(-c2cnnc3c(-c4cccc(C(F)(F)F)c4)cnn23)cc1 | > 100 µM | > 100 |
| OCC(O)CC[CH2][Sn]([Br])([c]1ccccc1)[c]1ccccc1 (configuration not stated) | > 100 µM | > 100 |
| CCc1ccc(/C=C\c2cc(OC)c(OC)c(OC)c2)cc1 | 0.134 µM and 0.0499 µM | 0.0212 |
| O=c1c2cc([N+](=O)[O-])ccc2sc2ccsc12 | > 100 µM |  |
| C=CCCCCCCCCC(=O)[O][Sn]([CH2]CCC)([CH2]CCC)[CH2]CCC | 0.371 µM | 0.172 |
| COc1ccc(C2=CC3CCC2C3)cc1 (configuration not stated) | > 100 µM |  |
| COc1ccc(/C=C/CN(C)CCc2ccccc2)cc1OC | > 100 µM |  |
| CC/C(=C(/c1ccc(O)cc1)c1ccc(OCCNC)cc1)c1ccccc1 | 3.59 µM | 1.97 |
| [Cl-].[Dy+3].[O-]/N=C(\c1ccccc1)c1ccccn1.[O-]/N=C(\c1ccccc1)c1ccccn1.[O-]/N=C(\c1ccccc1)c1ccccn1 | > 100 µM | 33.5 |
| CC(C)(CC(=O)Nc1ccccc1)C(=O)O | > 100 µM |  |
| COc1ccc(/C(COc2c(-c3ccccc3)oc3ccccc3c2=O)=N\O)cc1 | 30.9 µM | 12 |
| NC(=O)C(=O)N/N=C(\CC1(O)C(=O)Nc2ccccc21)c1ccc2ccccc2c1 (configuration not stated) | 41.1 µM |  |
| Cc1cc2c(cc1C)[n+](=O)c(C(=O)C/C(=N/NC(=O)CC#N)C(=O)Nc1ccccc1C(F)(F)F)c(C)n2[O-] | > 100 µM |  |
| COC(=O)/C(=N/NC(=O)C[N+](C)(C)C)C(C(=O)OC)C(=O)C(=O)Nc1ccc(F)cc1 (configuration not stated) | > 100 µM |  |
| O=C(c1ccccc1)c1nnc(C(=O)c2ccccc2)nn1 | > 344 µM |  |
| Brc1cccc(C=NC23CC4CC(CC(C4)C2)C3)c1 | > 100 µM |  |

| SMILES | TGI | GI50 [µM] |
| --- | --- | --- |
| CCC[CH2][Sn]([CH2]CCC)([O]C(=O)c1cccnc1SC)[O]C(=O)c1cccnc1SC | 2.33 µM | 1.09 |
| CC1(C)OC2[C@@H](CNC(=O)NC(=O)NC(=O)CI)O[C@@H](n3cnc4c(NC(=O)Nc5ccccc5)ncnc43)[C@H]2O1 (some centres not stated) | 14.5 µM | 6.44 |
| COc1cc(C2=C(c3ccccc3)COC2=O)cc(OC)c1OC | 6.69 µM | 0.834 |
| COc1cc(C2NC(=O)c3ccccc3N2)ccc1OCCCCCOc1c(OC)cc(C2=NOC(c3cc(OC)c(OC)c(OC)c3)C2)cc1OC (configuration not stated) | > 100 µM | > 59 |
| O=C1O[C@@H](c2ccc3c(c2)OCO3)C2C(=O)O[C@@H](c3ccc4c(c3)OCO4)C12 (some centres not stated) | > 100 µM |  |
| O=C1CCC(=O)N2CCCCN12 | > 100 µM |  |
| CC(C)C(=O)NC(=S)Nc1ccc([N+](=O)[O-])cc1C#N | 52.7 µM |  |
| C/C(CC(=O)Nc1cc(Cl)c(Cl)cc1Cl)=N\NC(N)=O | > 100 µM |  |
| N#Cc1cc([N+](=O)[O-])ccc1NC(=O)C(=O)Nc1n[nH]c(N)n1 | > 100 µM |  |
| O=C(/C=C/c1c(O)ccc2ccccc12)c1cccc(O)c1 | > 100 µM |  |
| CC1=NN(C(=O)Nc2ccccc2)C(=O)C2CCC(=O)N12 (configuration not stated) | > 100 µM |  |
| COC(=O)C1Cc2c(n(Cc3ccccc3)c3ccccc23)C(CCC(=O)O)N1C(C)C (configuration not stated) | > 100 µM |  |
| O=C(O)CNS(=O)(=O)c1ccc(NCc2ccccc2)cc1 | > 100 µM |  |
| CC(C)(C)C1C=C(Sc2ccccc2)C(=O)O1 (configuration not stated) | 54.4 µM |  |
| CCC[CH2][Sn]1([CH2]CCC)[O]Cc2nc(C)ccc2[O]1 | 15.9 µM | 4.38 |
| Cc1ccc2c(c1)[n+]([O-])c(N)n[n+]2[O-] | > 100 µM |  |
| O=c1/c(=C/c2ccco2)sc2nc3ccccc3n12 | > 100 µM |  |
| O=C1CCC2(c3ccc(F)cc3)Nc3cc(Cl)ccc3N12 (configuration not stated) | > 100 µM |  |
| C/C(CC(=O)Nc1ccc(C)cc1C)=N/N=C(N)N | > 100 µM |  |

Tested on: HCT-15 colon
Test: inhibition of tumour cell growth, NCI panel, 48 h

| SMILES | TGI [µM] | GI50 [µM] |
| --- | --- | --- |
| COC(=O)c1c/c(=N\NC(=O)CC(=O)Nc2ccccc2OC)c2ccccc2o1 | > 100 |  |
| NC(CCC(=O)NC(CSSCCCCS(=O)O)C(=O)NCC(=O)O)C(=O)O (configuration not stated) | > 100 |  |
| COC12C=C(C)C(CC1)CC2C(=O)O (configuration not stated) | > 100 |  |
| COc1ccc(-c2cnnc3c(-c4cccc(C(F)(F)F)c4)cnn23)cc1 | > 100 | > 100 |
| OCC(O)CC[CH2][Sn]([Br])([c]1ccccc1)[c]1ccccc1 (configuration not stated) | > 100 | > 100 |
| CCc1ccc(/C=C\c2cc(OC)c(OC)c(OC)c2)cc1 |  | 0.0327 |
| O=c1c2cc([N+](=O)[O-])ccc2sc2ccsc12 | > 100 |  |
| C=CCCCCCCCCC(=O)[O][Sn]([CH2]CCC)([CH2]CCC)[CH2]CCC | 0.348 | 0.158 |
| COc1ccc(C2=CC3CCC2C3)cc1 (configuration not stated) | > 100 |  |
| COc1ccc(/C=C/CN(C)CCc2ccccc2)cc1OC | > 100 |  |
| CC/C(=C(/c1ccc(O)cc1)c1ccc(OCCNC)cc1)c1ccccc1 | 4.07 | 1.87 |
